Assay: Powder X-ray diffraction analysis of anhydrous-to-hydrate form conversion (granules, tablets)
Type: physicochemical
Procedure: Anhydrous (2R)-2-phenylcarbonyloxypropyl (2S)-2-amino-3-(3,4-dihydroxyphenyl)propanoate mesylate (138.6 g) and hydroxypropylmethyl cellulose (1.4 g) (Methocer HPMC E4M, Dow Chemical) were weighed and sieved through an 18-mesh screen. The screened materials were placed into a high shear wet granulator (KG-5 high sheer blender, 5 L bowl, Key International) and pre-blended for 2 min. […] The material was blended for ca. 10-20 min at an impeller speed of 250 rpm and a chopper speed of 2,000 rpm, and a water spray rate of 2 g/min. After granulation the wet granules were milled through a 16-mesh screen with a brush. The milled wet granules were placed in a dryer (UniGlatt Fluid Bed Dryer, Glatt GmbH) and dried for 24 min at an inlet temperature of 65° C. with airflow adjusted at 8-10 SCFM. The dried granules were milled by manually pressing the granules through a screen.
Powder X-ray diffraction (PXRD) analysis was performed using a PANalytical X′Pert Pro X-ray diffractometer. The X-ray source was Cu kα1 with output voltage of 45 kV and current of 40 mA. The instrument employed para-focusing Bragg-Brentano geometry with incident divergence and scattering slits set at 1/16° and ⅛°, respectively. Soller slits with a 0.04-mm radius were used for both the incident and diffracted beams to remove axial divergence. Powder samples (9-12 mg) were gently pressed onto a single crystal silicon sample holder to form a smooth surface, and samples were spun at 8 sec/revolution throughout the data acquisition process. The samples were scanned from 2° to 40°(2θ°) with a step size of 0.017° (2θ angle) and a scan speed of 0.067°/sec. Data acquisition was controlled and analyzed with X′Pert Data Collector Software (version 2.2d) and X′Pert Data Viewer (version 1.2c), respectively.

Crystal form by PXRD after high shear wet granulation (with 1% sodium lauryl sulfate): did not transform to the hydrate
Crystal form by PXRD after high shear wet granulation (without sodium lauryl sulfate, water content of 9 wt-% and 15 wt-% (FIG. 3 patterns B and C)): characteristic of the hydrated form
SMILES: CS(=O)(=O)O.C[C@H](COC(=O)[C@@H](N)Cc1ccc(O)c(O)c1)OC(=O)c1ccccc1 [compound 1, (2R)-2-Phenylcarbonyloxypropyl (2S)-2-amino-3-(3,4-dihydroxyphenyl)propanoate mesylate]
Crystal form by PXRD after high shear wet granulation (without sodium lauryl sulfate, 7 wt-% water): a combination of the anhydrous and hydrated forms
Crystal form by PXRD after high shear wet granulation (without sodium lauryl sulfate, 15 wt-% water): predominantly crystalline (2R)-2-phenylcarbonyloxypropyl (2S)-2-amino-3-(3,4-dihydroxyphenyl)propanoate mesylate, hydrate

From patent US8435562B2 (XenoPort, Inc., priority 2009, dated 2013)
